Assay results published in US8299093B2, “Small molecule inhibitors of retroviral assembly and maturation” (New York Blood Center, Inc., priority 2008, dated 2012).
pIC50: −log10 of the molar value.

Tests used:
[1] = XTT cytotoxicity assay in MT-2 cells; format: cell-based; conditions: human, Table 1, formula I, cell type not given, read-out: CC50 (concentration that causes 50% cytotoxicity)
Procedure: Briefly, for MT-2 cells, 100 μL of small molecule at graded concentrations was added to an equal volume of cells (5×10^4 cells/ml) in 96-well plates followed by incubation at 37° C. for 4 days, which ran parallel to the neutralization assay in MT-2 (except medium was added instead of virus). In the case of PBMC, 2.5×10^5 cells/mL were used and the cytotoxicity was measured after 7 days. After addition of XTT (PolySciences, Inc.), the soluble intracellular formazan was quantitated calorimetrically at 450 nm 4 hours later with a reference at 620 nm. The CC50 values were calculated.

HIV-1 = experiment: Inhibition of HIV-1 infectivity (p24 ELISA) in MT-2 cells, laboratory-adapted HIV-1 strains; format: cell-based; conditions: Human immunodeficiency virus 1, MT2, 96 h, read-out: IC50 (concentration that provides 50% inhibition of HIV-1 p24), Table 1, formula I; MT-2 cells, p24 ELISA day 4
Procedure: AZT was used as a positive control in the infectivity assays. In brief, 1×10^4 MT-2 cells (lymphocytes) were infected with HIV-1 at 100 TCID50 (50% tissue culture infective dose, 0.01 MOI [multiplicity of infection]) in 200 μL RPMI 1640 medium containing 10% FBS in the presence or absence of small molecules at graded concentrations overnight. The culture supernatants were then removed and fresh media containing freshly prepared test compounds were added. On the fourth day post-infection, 100 μL of culture supernatants were collected from each well, mixed with equal volume of 5% TRITON X-100® and tested for p24 antigen by ELISA®.

For Cc1ccc2cc(CN(Cc3ccco3)C(=O)c3cccc(F)c3)c(=O)[nH]c2c1 [NYAD-S81], the CC50 [1] was > 10 µM and the pIC50 (HIV-1) was > 5.00.

For Cc1cc(C)c2[nH]c(=O)c(CN(Cc3ccco3)C(=O)c3ccc(Br)cc3)cc2c1 [NYAD-S82], the CC50 [1] was > 10 µM and the pIC50 (HIV-1) was < 5.00.

With CCOc1ccc(C(=O)N(Cc2ccco2)Cc2cc3cc(OC)c(OC)cc3[nH]c2=O)cc1 [NYAD-S84] the CC50 [1] was > 10 µM and the pIC50 (HIV-1) was < 5.00.

In the case of Cc1ccc(C)c2[nH]c(=O)c(CN(Cc3ccco3)C(=O)c3ccc(Br)cc3)cc12 [NYAD-S85], the CC50 [1] was > 10 µM and the pIC50 (HIV-1) was < 5.00.

In the case of CCOc1ccc2[nH]c(=O)c(CN(Cc3ccco3)C(=O)c3ccccc3Cl)cc2c1 [NYAD-S89], the CC50 [1] was > 10 µM and the pIC50 (HIV-1) was < 5.00.

For Cc1ccc2[nH]c(=O)c(CN(Cc3ccco3)C(=O)c3ccccc3Br)cc2c1 [NYAD-S90], the CC50 [1] was > 10 µM and the pIC50 (HIV-1) was < 5.00.

For Cc1ccc2[nH]c(=O)c(CN(Cc3ccco3)C(=O)c3ccc(C(C)(C)C)cc3)cc2c1 [NYAD-S91], the CC50 [1] was > 10 µM and the pIC50 (HIV-1) was < 5.00.

For Cc1ccc(C(=O)N(Cc2ccco2)Cc2cc3ccc(C)cc3[nH]c2=O)cc1 [NYAD-S92], the CC50 [1] was > 10 µM and the pIC50 (HIV-1) was < 5.00.

With CCOc1ccc2[nH]c(=O)c(CN(Cc3ccco3)C(=O)c3ccc(Br)cc3)cc2c1 [NYAD-S94] the CC50 [1] was > 10 µM and the pIC50 (HIV-1) was < 5.00.

In the case of CCOc1ccc2[nH]c(=O)c(CN(Cc3ccc(F)cc3)C(=O)c3ccco3)cc2c1 [NYAD-S95], the CC50 [1] was > 10 µM and the pIC50 (HIV-1) was < 5.00.

In the case of Cc1ccc2[nH]c(=O)c(CN(Cc3ccc(F)cc3)C(=O)c3ccco3)cc2c1 [NYAD-S96], the CC50 [1] was > 10 µM and the pIC50 (HIV-1) was < 5.00.

With CCOc1ccc2[nH]c(=O)c(CN(Cc3ccco3)C(=O)c3cccc(F)c3)cc2c1 [NYAD-S97] the CC50 [1] was < 10 µM and the pIC50 (HIV-1) was < 5.00.

For Cc1ccc2[nH]c(=O)c(CN(Cc3ccc(Cl)cc3)C(=O)c3ccccc3)cc2c1 [NYAD-S98], the CC50 [1] was > 10 µM and the pIC50 (HIV-1) was < 5.00.

For CCc1ccc2[nH]c(=O)c(CN(Cc3ccco3)C(=O)c3ccccc3)cc2c1 [NYAD-S99], the CC50 [1] was > 10 µM and the pIC50 (HIV-1) was < 5.00.

With COc1ccc2[nH]c(=O)c(CN(Cc3ccco3)C(=O)c3ccc(C)cc3)cc2c1 [NYAD-S100] the CC50 [1] was > 10 µM and the pIC50 (HIV-1) was > 5.00.

In the case of Cc1cc(C)c2[nH]c(=O)c(CN(Cc3ccco3)C(=O)c3ccco3)cc2c1 [NYAD-S101], the CC50 [1] was > 10 µM and the pIC50 (HIV-1) was < 5.00.

With CCc1ccc2[nH]c(=O)c(CN(Cc3cccs3)C(=O)c3ccco3)cc2c1 [NYAD-S102] the CC50 [1] was > 10 µM and the pIC50 (HIV-1) was < 5.00.

For Cc1cc(C)c2[nH]c(=O)c(CN(Cc3ccco3)C(=O)c3ccc(F)cc3)cc2c1 [NYAD-S103], the CC50 [1] was > 10 µM and the pIC50 (HIV-1) was < 5.00.

For Cc1cc(C)c2cc(CN(Cc3ccco3)C(=O)C3CCCCC3)c(=O)[nH]c2c1 [NYAD-S104], the CC50 [1] was > 10 µM and the pIC50 (HIV-1) was < 5.00.

With COc1ccc2cc(CN(Cc3ccco3)C(=O)c3ccccc3)c(=O)[nH]c2c1 [NYAD-S105] the CC50 [1] was > 10 µM and the pIC50 (HIV-1) was < 5.00.

For CCOc1ccc2[nH]c(=O)c(CN(Cc3ccco3)C(=O)c3ccco3)cc2c1 [NYAD-S106], the CC50 [1] was > 10 µM and the pIC50 (HIV-1) was < 5.00.

With Cc1cc(C)c2[nH]c(=O)c(CN(Cc3ccco3)C(=O)c3ccncc3)cc2c1 [NYAD-S107] the CC50 [1] was > 10 µM and the pIC50 (HIV-1) was < 5.00.

With CCOc1ccc2[nH]c(=O)c(CN(Cc3ccco3)C(=O)c3ccc(C(C)(C)C)cc3)cc2c1 [NYAD-S108] the CC50 [1] was > 10 µM and the pIC50 (HIV-1) was < 5.00.

With CCOc1ccc2[nH]c(=O)c(CN(Cc3ccco3)C(=O)c3cc(OC)c(OC)c(OC)c3)cc2c1 [NYAD-S109] the CC50 [1] was > 10 µM and the pIC50 (HIV-1) was < 5.00.

In the case of CCc1ccc2[nH]c(=O)c(CN(Cc3ccco3)C(=O)c3ccc(C(C)(C)C)cc3)cc2c1 [NYAD-S110], the CC50 [1] was > 10 µM and the pIC50 (HIV-1) was < 5.00.

With Cc1cc(C)c2cc(CN(Cc3ccco3)C(=O)c3ccccc3)c(=O)[nH]c2c1 [NYAD-S111] the CC50 [1] was > 10 µM and the pIC50 (HIV-1) was < 5.00.

In the case of Cc1cccc2cc(CN(Cc3ccco3)C(=O)c3cccc(F)c3)c(=O)[nH]c12 [NYAD-S118], the CC50 [1] was > 10 µM and the pIC50 (HIV-1) was > 5.00.

With Cc1ccc(CN(Cc2cc3cc(C)ccc3[nH]c2=O)C(=O)c2ccco2)cc1 [NYAD-S121] the CC50 [1] was > 10 µM and the pIC50 (HIV-1) was > 5.00.

In the case of Cc1ccc(C(=O)N(Cc2ccco2)Cc2cc3cccc(C)c3[nH]c2=O)cc1 [NYAD-S122], the CC50 [1] was < 10 µM and the pIC50 (HIV-1) was > 5.00.
